Assay: Cytotoxicity against human NSCLC-L16 cells
Format: functional, cell-based

`CC(C)[C@@H](/C=C/[C@@H](C)[C@H]1C[C@H](O)[C@@H]2[C@]1(C)CC[C@@H]1[C@@]3(C)CC[C@H](O[C@@H]4OC[C@@H](O)[C@H](O)[C@H]4O)C[C@@H]3[C@H](O)C[C@]12O)COS(=O)(=O)[O-].[Na+]` [ASTERIIDOSIDE L] and `CC(C)[C@H](/C=C/[C@@H](C)[C@H]1C[C@@H](O)[C@@H]2[C@]1(C)CC[C@@H]1[C@@]3(C)CC[C@H](O[C@@H]4OC[C@@H](O)[C@H](O)[C@H]4O)C[C@@H]3[C@@H](O)[C@@H](O)[C@]12O)O[C@@H]1OC[C@@H](O)[C@H](OS(=O)(=O)[O-])[C@H]1O.[Na+]` [ASTERIIDOSIDE I] cannot be ordered by IC50: greater than 30 µg/mL for the first, greater than 30 µg/mL for the second.

Going from `CC(C)=CCC[C@](C)(O)[C@H]1CC[C@H]2[C@@H]3C[C@H](O[C@@H]4O[C@H](C)[C@@H](O)[C@H](O[C@@H]5OC[C@@H](O[C@@H]6O[C@H](C)[C@H](O)[C@H](O)[C@H]6O[C@@H]6OC[C@H](O)[C@H](O[C@@H]7O[C@H](CO)[C@H](O)[C@H](O)[C@H]7O)[C@H]6O)[C@H](O)[C@H]5O[C@@H]5O[C@H](C)[C@@H](O)[C@H](O)[C@H]5O)[C@H]4C)[C@H]4C[C@@H](OS(=O)(=O)[O-])CC[C@]4(C)C3=CC[C@@]21C.[Na+]` [ASTERIIDOSIDE E] to `C=C(CC[C@](C)(O)[C@H]1CC[C@H]2[C@@H]3C[C@H](O[C@@H]4O[C@H](C)[C@@H](O)[C@H](O[C@@H]5OC[C@@H](O[C@@H]6O[C@H](C)[C@H](O)[C@H](O)[C@H]6O[C@@H]6OC[C@H](O)[C@H](O[C@@H]7O[C@H](CO)[C@H](O)[C@H](O)[C@H]7O)[C@H]6O)[C@H](O)[C@H]5O[C@@H]5O[C@H](C)[C@@H](O)[C@H](O)[C@H]5O)[C@H]4C)[C@H]4C[C@@H](OS(=O)(=O)[O-])CC[C@]4(C)C3=CC[C@@]21C)C(C)C.[Na+]` [ASTERIIDOSIDE D], the IC50 falls from 18.1 µg/mL to 11.4 µg/mL (1.6-fold).

`C[C@@H](C/C=C/[C@@H](C)[C@H]1[C@@H](O)[C@@H](O)[C@@H]2[C@]1(C)CC[C@@H]1[C@@]3(C)CC[C@H](O[C@@H]4OC[C@@H](O)[C@H](O)[C@H]4O)C[C@@H]3[C@@H](O)C[C@]12O)CO[C@@H]1OC[C@@H](O)[C@H](O)[C@H]1O` [ASTERIIDOSIDE F] and `CC(C)CC(=O)C[C@](C)(O)[C@H]1CC[C@H]2[C@@H]3C[C@H](O[C@@H]4O[C@H](C)[C@@H](O)[C@H](O[C@@H]5O[C@H](C)[C@@H](O[C@@H]6O[C@H](CO)[C@H](O)[C@H](O)[C@H]6O[C@@H]6O[C@H](C)[C@H](O)[C@H](O[C@@H]7O[C@H](CO)[C@H](O)[C@H](O)[C@H]7O)[C@H]6O)[C@H](O)[C@H]5O[C@@H]5O[C@H](C)[C@@H](O)[C@H](O)[C@H]5O)[C@H]4C)[C@H]4C[C@@H](OS(=O)(=O)[O-])CC[C@]4(C)C3=CC[C@@]21C.[Na+]` [ASTERIIDOSIDE A] cannot be ordered by IC50: greater than 30 µg/mL for the first, greater than 30 µg/mL for the second.
